# Measurements taken from US10869904B2, “Pharmaceutical composition for preventing or treating respiratory disease comprising extract of Justicia procumbens L” (DONG WHA PHARM. CO., LTD., priority 2016, dated 2020).
# Test system: ICR mice
# Assay: Test for evaluation of expectorant activity (phenol red in trachea)
# Type: in vivo
# Settings: 200 mg/kg, oral, male ICR mice
# Experimental: In order to evaluate the expectorant activities of the water and ethanol extracts of Justicia procumbens L., prepared in Preparation Examples 1-1 to 1-2, a test for evaluation of expectorant activity was performed using male ICR mice (weighed 30 to 33 g; Orientbio). Specifically, the extracts and the comparative drug ambroxol (200 mg/kg, Boehringer Ingelheim) were administered orally to the respective groups of mice that fasted the previous day. […] The isolated trachea was freeze-stored in 1 ml of physiological saline for 24 hours. Next, the trachea was sonicated, and 1N NaOH was added to the supernatant (0.1 ml of 1N NaOH per ml of the supernatant). Then, the absorbance at 546 nm was measured and the expectorant activity was measured with the concentration of phenol red.
smiles,measurement,value
"Nc1c(Br)cc(Br)cc1CN[C@H]1CC[C@H](O)CC1 [Ambroxol, ambroxol]","Expectoration (%, n = 4, Mean ± SE)",11.4 ± 12.89%
